Test results as given in patent US20180282347A1, “BICYCLIC COMPOUNDS AS PEST CONTROL AGENTS” (BAYER CROPSCIENCE AKTIENGESELLSCHAFT, priority 2014, published 2018).
Where two headings read alike, the source gives them in different places.

Key:
[1] = tested on: Myzus persicae; assay: Myzus persicae - spray test; type: in vivo; conditions: foliar, 144 h, application rate 500 g/ha, sprayed Chinese cabbage leaf discs (Brassica pekinensis) infested by all stages, after 6 days, read-out: efficacy in % (100% = all aphids killed)
Description: Myzus persicae—Spray Test
Solvent: 78 parts by weight of acetone • • 1.5 parts by weight of dimethylformamide
Emulsifier: alkylaryl polyglycol ether
To produce further test concentrations, the formulation is diluted with emulsifier-containing water.
After 6 days, the efficacy in % is determined. 100% means that all the aphids have been killed; 0% means that no aphids have been killed.

[2] = log P by HPLC on reversed-phase (C18) columns, OECD Guideline 117; type: physicochemical; conditions: reversed-phase (C18) HPLC column
Description: Calibration is carried out using unbranched alkan-2-ones (having 3 to 16 carbon atoms) with known log P values (log P values determined on the basis of the retention times by linear interpolation between two successive alkanones).

[3] = acidic range, pH 2.7, 0.1% aqueous formic acid and acetonitrile as eluents, read-out: logP [a]
[4] = neutral range, pH 7.8, 0.001 molar aqueous ammonium hydrogencarbonate solution and acetonitrile as eluents, read-out: logP [b]

Structure (SMILES) | chromatographic logP [2, 3] | chromatographic logP [2, 4] | pest or weed control at 500 g/ha [1] [%]
Cc1cc(F)c(-c2cc3sc(-c4cccnc4)nc3cn2)cc1SCC(F)(F)F [Example 1, 6-[2-Fluoro-4-methyl-5-(2,2,2-trifluoroethylsulphanyl)phenyl]-2-(3-pyridyl)thiazolo [4,5-c]pyridine] | 4.45 | 4.41 | 90
Cc1cc(F)c(-c2cc3sc(-c4cccnc4)nc3cn2)cc1[S+]([O-])CC(F)(F)F (stereo not shown) [Example 2, 6-[2-Fluoro-4-methyl-5-(2,2,2-trifluoroethylsulphinyl)phenyl]-2-(3-pyridyl)thiazolo [4,5-c]pyridine] | 2.8 | 2.77 | 
FC(F)(F)c1cc2sc(-c3cccnc3)nc2cn1 [Example 3, 2-(3-Pyridyl)-6-(trifluoromethyl)thiazolo[4,5-c]pyridine] | 2.32 | 2.32 | 
c1cncc(-c2nc3cnc(N4CCOCC4)cc3s2)c1 [Example 4, 4-[2-(3-Pyridyl)thiazolo[4,5-c]pyridin-6-yl]morpholine] | 1.73 | 1.94 | 90
Cc1ccc(-c2cc3sc(-c4cccnc4)nc3cn2)cc1[S+]([O-])CC(F)(F)F (stereo not shown) [Example 5] | 2.79 | 2.74 | 
c1ccc(-c2cc3sc(-c4cccnc4)nc3cn2)nc1 [Example 6, 6-(2-Pyridyl)-2-(3-pyridyl)thiazolo[4,5-c]pyridine] | 1.68 | 2.38 | 
CN(C(=O)c1cccc(SC(F)(F)F)c1)c1cc2sc(-c3cccnc3)nc2cn1 [Example 7] | 3.3 |  | 90
CN(C(=O)C1CCS(=O)(=O)C1)c1cc2sc(-c3cccnc3)nc2cn1 (stereo not shown) [Example 10] | 1.37 |  | 90
O=C(Nc1cccc(SC(F)(F)F)c1)c1cc2sc(-c3cccnc3)nc2cn1 [Example 11] | 4.33 |  | 
O=C(Nc1cccc([S+]([O-])C(F)(F)F)c1)c1cc2sc(-c3cccnc3)nc2cn1 (stereo not shown) [Example 14] | 2.99 |  | 
CN(C(=O)CCS(C)(=O)=O)c1cc2sc(-c3cccnc3)nc2cn1 [Example 17, N-Methyl-3-(methylsulphonyl)-N-[2-(pyridin-3-yl) [1,3]thiazolo[4,5-c]pyridin-6-yl]propanamide] | 1.25 |  | 90
CN(C(=O)c1cccc(S(=O)(=O)C(F)(F)F)c1)c1cc2sc(-c3cccnc3)nc2cn1 [Example 18] | 1.54 |  | 100
O=C(Nc1cccc(S(=O)(=O)C(F)(F)F)c1)c1cc2sc(-c3cccnc3)nc2cn1 [Example 19] | 2.09 |  | 
CCN(C)C(=O)c1cc2sc(-c3cccnc3)nc2cn1 [Example 21] | 1.52 |  | 90
CN(C(=O)c1cccc([S+]([O-])C(F)(F)F)c1)c1cc2sc(-c3cccnc3)nc2cn1 (stereo not shown) [Example 22] | 2.21 |  | 90

Further lines, with some results ahead:

chromatographic logP [2, 3] | chromatographic logP [2, 4] | Structure (SMILES) | pest or weed control at 500 g/ha [1] [%]
1.35 |  | CNC(=O)c1cc2sc(-c3cccnc3)nc2cn1 [Example 20] | 
1.89 |  | Clc1cc2sc(-c3cccnc3)nc2cn1 [Example 24, 6-Chloro-2-(3-pyridyl)thiazolo[4,5-c]pyridine] | 
4.32 | 4.21 | Cc1ccc(-c2cc3sc(-c4cccnc4)nc3cn2)cc1SCC(F)(F)F [Example 25] | 
3.66 | 3.68 | FC(F)(F)c1ccn(-c2cc3sc(-c4cccnc4)nc3cn2)n1 [Example 26, 2-(Pyridin-3-yl)-6-[3-(trifluoromethyl)-1H-pyrazol-1-yl][1,3]thiazolo[4,5-c]pyridine] | 
1.38 | 2.61 | c1cncc(-c2nc3cnc(N4CCCC4)cc3s2)c1 [Example 27, 2-(Pyridin-3-yl)-6-(pyrrolidin-1-yl)[1,3]thiazolo[4,5-c]pyridine] | 
2.61 |  | O=C(Nc1cc2sc(-c3cccnc3)nc2cn1)c1cccc([S+]([O-])C(F)(F)F)c1 (stereo not shown) [Example 28] | 
1.17 |  | CS(=O)(=O)CCC(=O)Nc1cc2sc(-c3cccnc3)nc2cn1 [Example 29] | 
1.23 |  | CS(=O)(=O)CCNC(=O)c1cc2sc(-c3cccnc3)nc2cn1 [Example 30] | 
